From US11844349B2, “Anti-microbial agent to control biomass accumulation in SO2 scrubbers” (ECOLAB USA INC., priority 2016, dated 2023)

Test system: bacterial populations native to the test sample
Assay: Minimum inhibitory concentration screen of biocides under anaerobic conditions (pH indicator dye)
Type: cell-based
Settings: pH 6.5, read-out: Minimum Inhibitory Concentration
Description: A few exemplary biocides or a combination of one or more quaternary ammonium compounds with one additional biocide were investigated for their ability to inhibit microorganism growth. The method used to generate the data in Table 1 was based on methods for identifying the minimum inhibitory concentration of biocides or biocidal agents for use in anaerobically contaminated aqueous system as disclosed in the patent publication WO9934013A1 by Schwingel, et. al.
The method was a test assay used to rapidly screen antimicrobial agents against bacterial populations native to the test sample under anaerobic conditions. The assay utilized a pH indicator dye which is red at pH levels above 6.5 and yellow below pH 6.5. During fermentation under anaerobic conditions, volatile fatty acids were produced, which lowered the pH of the system. In the test wells, the accumulation of volatile fatty acids from actively growing and fermenting microorganisms lowered the pH causing the indicator dye to turn yellow. […]
When the control sample had turned yellow due to active fermentation and acid production, all samples were examined for color change, and the Minimum Inhibitory Concentration (MIC) values recorded. […] Because MIC values change with extended contact time, it was important to read the MIC values within 2-3 hours of the control wells turning yellow. […]

Structure (SMILES)	MIC
CN1CSC(=S)N(C)C1 [3,5-dimethyl-tetrahydro-2H-1,3,5-thiadiazine-2-thione]	26.2 µg/mL
N#CSCSC#N [Methylenebisthiocyanate]	0.8 to 1.6 µg/mL
